These results are taken from patent EP2547369B1, “A NA[…] MICELLE FORMED BY AN A[…]-COPOLYMER AND ENCAPSULATING A […]” (King Saud University, priority 2010, dated 2011).

The subject of data set [1] is MCF-7 breast cancer cell line. The data set is described as follows: MTT assay, cytotoxicity of Gd(III) complex on MCF-7. Format: cell-based, human. From the text:
(§1) The present inventors also evaluated the cytotoxicity of Gd(III) complexes using the MTT assay, another method measuring cell viability, on the Jurkat and MCF-7 cell lines (Figure 9 and 11). […] In order to estimate the concentration of Gd (III) complexes able to reduce cell viability by 50% (IC50), the present inventors plotted a linear regression line for each used cell line (Figure 10). […] It appears thus that Jurkat cells are slightly more susceptible to Gd (III) complexes than MCF-7 cells.
Two different cell lines were used to assess Gd(III) cytotoxicity: Jurkat, and MCF-7. Jurkat cells were seeded on two 96-well culture plates (BD Falcon) (50 µl in each well with a concentration of 4x10^5 cells/mL). […] Each test was repeated eight times. As a negative control, cells were treated with ethanol (96%) (the same amount of ethanol present in the cells treated with a highest concentration of Gd(III) complex). Incubation was carried out for 3 days. In this experiment the toxicity of Gd(III) complex was evaluated by the 3-(4, 5-dimethylthiazol-2-yl)-2, 5-diphenyl tetrazolium bromide (MTT) assay. At the end of each incubation time 10 µl of 5 mg/mL MTT solution (AppliChem) were added to each well followed by further incubation for 4h. Then, 100 µl of 0.04 N HCL in isopropanol (BDH Prolabo) were added to the wells and formazan crystals were allowed to solubilize for 1 hour at room temperature. The formazan concentration was quantified using a spectrophotometer (Tecan Infinite M200 monochromator-based multi-function microplate reader) by measuring the absorbance at 570 nm and 630 nm. The final optical density (OD) obtained from formazan formation was calculated with the following formula: OD=L(570nm)-L(630nm). The toxicity was assessed by calculating the % of cell survival in relation to the control untreated group. The procedure described above was repeated for the MCF-7 cell line, after being seeded at 5 × 10^3 cells per each well and allowed to attach for 24h.
On the technique in general: Formazan colour is commonly taken as a measure of viable cells.

Data set [2] relates to Jurkat human leukemia cell line. Nature of the data set: MTT assay, cytotoxicity of free and micelle-encapsulated Gd(III) complex on Jurkat. Format: cell-based. As to conditions: 3 days; for cytotoxicity: 50 µM.
Description: as §1
To compare the cytotoxicity of free and micelle-encapsulated Gd(III) complexes and to verify if the time of dialysis influences polymeric micelle cytotoxicity, the present inventors performed again the MTT assay on Jurkat cells. The cells were treated with incremental concentrations of the free and micelle-encapsulated Gd(III) complexes.
Two different cell lines were used to assess Gd(III) cytotoxicity: Jurkat, and MCF-7. Jurkat cells were seeded on two 96-well culture plates (BD Falcon) (50 µl in each well with a concentration of 4x10^5 cells/mL). Different concentrations (5 µM, 10 µM, 15 µM and 20 µM) of Gd(III) complex solution, diluted in 50 µl of RPMI-1640, were used. Each test was repeated eight times. As a negative control, cells were treated with ethanol (96%) (the same amount of ethanol present in the cells treated with a highest concentration of Gd(III) complex). Incubation was carried out for 3 days. In this experiment the toxicity of Gd(III) complex was evaluated by the 3-(4, 5-dimethylthiazol-2-yl)-2, 5-diphenyl tetrazolium bromide (MTT) assay. At the end of each incubation time 10 µl of 5 mg/mL MTT solution (AppliChem) were added to each well followed by further incubation for 4h. Then, 100 µl of 0.04 N HCL in isopropanol (BDH Prolabo) were added to the wells and formazan crystals were allowed to solubilize for 1 hour at room temperature. The formazan concentration was quantified using a spectrophotometer (Tecan Infinite M200 monochromator-based multi-function microplate reader) by measuring the absorbance at 570 nm and 630 nm. The final optical density (OD) obtained from formazan formation was calculated with the following formula: OD=L(570nm)-L(630nm). The toxicity was assessed by calculating the % of cell survival in relation to the control untreated group. […]
To assess Gd(III) complex-loaded polymeric micelle cytoxicity and to compare it with the toxicity from free Gd(III) complex, Jurkat cells were seeded on a 96-well culture plate (50 µl in each well with a concentration of 4x10^5 cells/mL). […] The cytotoxicity of Gd(III) complex and Gd(III) complex-loaded polymeric micelles was evaluated by the MTT assay following the procedure mentioned on 8.2.

The test system of another data set is Jurkat cell line. Nature of the data set: Cell count with Trypan Blue, cytotoxicity of Gd(III) complex. The data set is classed as cell-based, human. As to conditions: 3 days. The protocol: The MCF-7, MDA-MB-468, HeLa, 293T; ARPE19; D407 and S17 adherent cell lines were maintained in DMEM medium (LONZA) supplemented with 10% fetal bovine serum (FBS) (PAA), glutamine (200 mM), penicillin (10000 units/mL) and streptomycin (10000 µg/mL) from LONZA. All cell culture incubations were performed at 37°C under humidified atmosphere of 5% CO2. The Jurkat and DND41 suspension cell lines were maintained in RPMI 1640 medium (LONZA) supplemented as above. Cells were thawed at 37°C and pipetted into 10 mL of prewarmed medium. The cells were centrifuged at 300 g for 5 minutes to remove dimethylsulfoxide (DMSO) (Merck). Then, the supernatant was discarded and the pellet resuspended in 2 mL of fresh medium. The cells were placed into T25 flasks (Nunc) and 8 mL of medium was added for a final volume of 10 mL. The medium was changed every 2 days. […] The hemocytometer Neubauer chamber (Hausser Scientific) was filled with the cell suspension and uncolored viable cells were counted on an inverted light microscope (Leica DM IL). The cells were counted in four 1 mm^2 squares. The equation to calculate the cell number per cubic millimeter is the following: Number of cells counted per square millimeter × dilution used × 10. […]

The conditions of data set [3]: cited from earlier work.

As for “tetraaquodichloro(4,4'-ditBu-2,2'-bipyridine) gadolinium(III) chloride [Gd(III) complexes]”, the “toxicity (number of viable cells)” value in data set [1] (10 µM, MTT, 3 days, MCF-7) was “toxic”; in data set [2] (10 µM), “toxic”. Also, the toxicity result in data set [1] (50 µM, 3 days, MCF-7 cells as printed) was “overall cell death”. The IC50 in data set [1] (MCF-7, 3 days, MTT, from linear regression line, read-out: IC50 (concentration able to reduce cell viability by 50%)) was 12.8 µM; in data set [2] (from linear regression line, read-out: IC50 (concentration able to reduce cell viability by 50%)), 10.2 µM. The cytotoxicity entry in data set [2] is recorded as “kill all cells”; in data set [2] (listed as free Gd(III) complexes), “killed almost all cells”. For the same compound, the results for the “toxicity by cell count” value in the data set on Jurkat cell line (10 µM) and in the data set on Jurkat cell line (50 µM) were “less toxic” and “very toxic”, respectively.
In the case of `Cc1ccc2ccc3cccc4ccc1c2c34` [1-methylpyrene], the “solubility in aqueous media” value in data set [3] is listed as “ca. 10^-7 M”.
